# Legend:
# [1] = target: T1, GluK3 (Rattus norvegicus, UniProt P42264); details: at least; cited from earlier work
# T1 construct: made in house; host or cells: Sf9 insect cells (membranes)
# [2] = target: T2, GluK1 (Rattus norvegicus, UniProt P22756); assay: Radioligand binding at recombinant homomeric GluK1 in Sf9 membranes; details: recombinant rat homomeric receptor, [3H]-(S)-NF608, mean ± SEM
# T2 construct: made in house; host or cells: Sf9 insect cells (membranes)
# Method: (§1) Ligand binding affinities at recombinant rat homomeric GluA2, GluK1−3, and GluK5 were determined as previously detailed. […] The filters were dried at 70 °C for 1 h, and 50 μL/well Microscint 20 (PerkinElmer, Waltham, MA, USA) was added. Radioactivity was detected with a TopCounter (PerkinElmer, Waltham, MA, USA). GluA2 and GluK5 assays were filtered on GF/C type filters using Millipore 12-well filtration manifolds (Merck Life Science, Søborg, Denmark) and washed twice with ice-cold assay buffer. Filters were placed in pony vials (PerkinElmer, Waltham, MA, USA), 3 mL of Ultima Gold scintillation fluid (PerkinElmer, Waltham, MA, USA) was added, and DPM (disintegrations per minute) were determined using a TriCarb 2900 scintillation counter (PerkinElmer, Waltham, MA, USA).
# (§2) All competition curves (n ≥ 3 per ligand) were determined in triplicate. Data were analyzed using GraphPad Prism 6 (GraphPad Software, San Diego, CA, USA) to determine ligand affinity (Ki) and Hill coefficient (nH) using the one-site Ki and four-parameter logistics equations, respectively.
# [3] = target: T3, GluK2 (Rattus norvegicus, UniProt P42260); assay: Radioligand binding at recombinant homomeric GluK2 in Sf9 membranes; details: recombinant rat homomeric receptor, [3H]-kainic acid, mean ± SEM
# T3 construct: made in house; host or cells: Sf9 insect cells (membranes)
# Method: as §1, §2
# [4] = target: T1, GluK3; assay: Radioligand binding at recombinant homomeric GluK3 in Sf9 membranes; details: recombinant rat homomeric receptor, [3H]-kainic acid, mean ± SEM
# Method: as §1, §2
# [5] = target: T4, GluK5 (Rattus norvegicus, UniProt Q63273); assay: Radioligand binding at recombinant homomeric GluK5 in Sf9 membranes; details: recombinant rat homomeric receptor, [3H]-kainic acid, mean ± SEM
# T4 construct: made in house; host or cells: Sf9 insect cells (membranes)
# T4 sequence (Q63273 15-979): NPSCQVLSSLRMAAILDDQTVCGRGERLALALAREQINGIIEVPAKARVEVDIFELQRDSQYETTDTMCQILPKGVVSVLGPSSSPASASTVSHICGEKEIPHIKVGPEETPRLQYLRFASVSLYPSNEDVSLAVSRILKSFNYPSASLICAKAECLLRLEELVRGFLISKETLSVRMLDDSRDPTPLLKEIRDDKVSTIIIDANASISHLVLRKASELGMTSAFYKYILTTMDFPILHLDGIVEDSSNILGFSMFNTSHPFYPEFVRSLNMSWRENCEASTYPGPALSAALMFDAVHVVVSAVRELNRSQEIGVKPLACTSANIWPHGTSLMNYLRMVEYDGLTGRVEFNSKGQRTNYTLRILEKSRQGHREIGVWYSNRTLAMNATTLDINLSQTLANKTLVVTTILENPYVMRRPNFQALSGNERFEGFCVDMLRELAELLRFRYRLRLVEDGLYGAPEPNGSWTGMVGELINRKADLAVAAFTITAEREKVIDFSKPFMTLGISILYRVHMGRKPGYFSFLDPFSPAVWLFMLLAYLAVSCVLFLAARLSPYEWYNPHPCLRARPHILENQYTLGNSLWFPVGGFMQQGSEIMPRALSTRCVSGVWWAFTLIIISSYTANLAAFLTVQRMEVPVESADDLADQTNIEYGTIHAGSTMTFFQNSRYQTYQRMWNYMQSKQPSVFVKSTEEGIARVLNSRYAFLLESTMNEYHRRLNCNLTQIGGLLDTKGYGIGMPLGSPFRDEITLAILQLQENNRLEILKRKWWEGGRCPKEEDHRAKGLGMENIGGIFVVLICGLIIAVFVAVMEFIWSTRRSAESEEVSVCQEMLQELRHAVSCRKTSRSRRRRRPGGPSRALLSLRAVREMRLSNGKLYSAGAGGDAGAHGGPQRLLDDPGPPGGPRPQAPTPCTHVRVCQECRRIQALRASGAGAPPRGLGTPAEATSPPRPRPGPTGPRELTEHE
# Method: as §1, §2
# [6] = target: T5, GluA2 (Rattus norvegicus, UniProt P19491); assay: Radioligand binding at recombinant homomeric GluA2 in Sf9 membranes; details: recombinant rat homomeric receptor, [3H]-(RS)-AMPA, mean ± SEM
# T5 construct: made in house; host or cells: Sf9 insect cells (membranes)
# Method: as §1, §2
# [7] = target: T6, GluK3a (Rattus norvegicus, UniProt P42264); assay: Intracellular Ca2+ imaging assay, HEK293 cells expressing GluK3a; type: cell-based; details: 100 µM KA + 300 µM BPAM344, Ca2+ fluorescence, read-out: IC50, antagonism of agonist-evoked responses at GluK3
# T6 construct: expressed in transfected cells
# Text: For the determination of antagonistic activity of compounds at GluK1, GluK3 and GluA2 receptors, stable HEK293 cell lines expressing rat GluK1b(Q), GluK3a, and GluA2(Q)i were created. A polyclonal stable cell line expressing GluK3a was created as described previously. For the creation of polyclonal stable cell lines expressing GluK1and GluA2 receptors, cDNA encoding blasticidin-S deaminase (blas) enzymes were inserted into the pIRES plasmid vector (Clontech, Mountain View, CA, USA) to create the plasmid vector pRES(blas). Subsequently, cDNA for rat GluK1(Q)1b and the flip isoform of rat GluA2(Q)i were inserted into pRES(blas) to create the expression constructs GluK1b(Q)pIRES(blas) and GluA2i(Q)pIRES(blas), respectively. These were used to transfect GripTite^TM HEK293 cells followed by selecting with 20 µg/mL blasticidin (Invivogen, Toulouse, France) and 0.50 mg/mL geneticin in the presence of 20 µM of the AMPA receptor antagonist CNQX (Tocris, Bristol, UK) until stably transfected GluK1b(Q) and GluA2(Q)i cell lines were obtained. For functional assays, cells were plated into clear-bottomed, black 96-well fluorescence culture plates (Corning, Vordingborg, Denmark), and when >70% confluent, the cells were loaded with 2 μM Fluo 4-AM calcium sensitive dye (Abcam, Cambridge, UK) and used for the imaging of agonist-evoked changes in intracellular Ca^2+ using a FlexStation I plate reader (Molecular Devices, San Jose, CA, USA). […] Changes in dye fluorescence in response to the addition of an agonist solution were then measured at 538 nm using excitation at 485 nm and emission cut-off at 515 nm. Baseline fluorescence was measured for 16 s before the addition of 50 µL agonist solution to each well of the assay plate, and fluorescence was measured for 120 to 160 s after addition of the agonists. Peak change in fluorescence was calculated as the difference between the maximal observed increase in fluorescence and pre-agonist baseline fluorescence. The agonist solutions contained 100 µM KA together with 300 µM of the KAR positive allosteric modulator BPAM344 (Sigma-Aldrich Chemical, St. Louis, MO, USA) for GluK1 and GluK3 experiments or 100 µM glutamate together with 100 µM of the AMPAR positive allosteric modulator cyclothiazide for GluA2 experiments (HelloBio, Bristol, UK). Responses were determined in at least triplicate at each compound concentration.
# T5 sequence (P19491 22-883): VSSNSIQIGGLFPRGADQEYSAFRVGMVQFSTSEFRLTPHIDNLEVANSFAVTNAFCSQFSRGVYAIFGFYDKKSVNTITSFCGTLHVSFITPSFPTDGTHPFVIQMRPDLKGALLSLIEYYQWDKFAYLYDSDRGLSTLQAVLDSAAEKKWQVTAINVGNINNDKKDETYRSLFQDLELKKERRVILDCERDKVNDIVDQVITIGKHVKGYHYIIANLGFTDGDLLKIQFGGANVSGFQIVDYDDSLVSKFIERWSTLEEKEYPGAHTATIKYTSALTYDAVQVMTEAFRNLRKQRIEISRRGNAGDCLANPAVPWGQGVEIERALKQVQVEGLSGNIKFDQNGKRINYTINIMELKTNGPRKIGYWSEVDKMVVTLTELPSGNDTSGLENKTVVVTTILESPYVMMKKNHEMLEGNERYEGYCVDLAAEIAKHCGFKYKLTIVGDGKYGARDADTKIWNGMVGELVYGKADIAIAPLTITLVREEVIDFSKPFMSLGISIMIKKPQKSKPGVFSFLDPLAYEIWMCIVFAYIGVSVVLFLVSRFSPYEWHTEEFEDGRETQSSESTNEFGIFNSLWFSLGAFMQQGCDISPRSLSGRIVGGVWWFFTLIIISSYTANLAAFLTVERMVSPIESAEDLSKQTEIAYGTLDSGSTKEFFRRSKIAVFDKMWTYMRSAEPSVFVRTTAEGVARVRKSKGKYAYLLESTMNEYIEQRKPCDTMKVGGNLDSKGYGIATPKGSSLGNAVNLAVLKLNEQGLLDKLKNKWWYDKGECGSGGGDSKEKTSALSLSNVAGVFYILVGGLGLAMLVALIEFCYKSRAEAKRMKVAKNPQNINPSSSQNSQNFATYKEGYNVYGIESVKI
# T2 sequence (P22756 31-949): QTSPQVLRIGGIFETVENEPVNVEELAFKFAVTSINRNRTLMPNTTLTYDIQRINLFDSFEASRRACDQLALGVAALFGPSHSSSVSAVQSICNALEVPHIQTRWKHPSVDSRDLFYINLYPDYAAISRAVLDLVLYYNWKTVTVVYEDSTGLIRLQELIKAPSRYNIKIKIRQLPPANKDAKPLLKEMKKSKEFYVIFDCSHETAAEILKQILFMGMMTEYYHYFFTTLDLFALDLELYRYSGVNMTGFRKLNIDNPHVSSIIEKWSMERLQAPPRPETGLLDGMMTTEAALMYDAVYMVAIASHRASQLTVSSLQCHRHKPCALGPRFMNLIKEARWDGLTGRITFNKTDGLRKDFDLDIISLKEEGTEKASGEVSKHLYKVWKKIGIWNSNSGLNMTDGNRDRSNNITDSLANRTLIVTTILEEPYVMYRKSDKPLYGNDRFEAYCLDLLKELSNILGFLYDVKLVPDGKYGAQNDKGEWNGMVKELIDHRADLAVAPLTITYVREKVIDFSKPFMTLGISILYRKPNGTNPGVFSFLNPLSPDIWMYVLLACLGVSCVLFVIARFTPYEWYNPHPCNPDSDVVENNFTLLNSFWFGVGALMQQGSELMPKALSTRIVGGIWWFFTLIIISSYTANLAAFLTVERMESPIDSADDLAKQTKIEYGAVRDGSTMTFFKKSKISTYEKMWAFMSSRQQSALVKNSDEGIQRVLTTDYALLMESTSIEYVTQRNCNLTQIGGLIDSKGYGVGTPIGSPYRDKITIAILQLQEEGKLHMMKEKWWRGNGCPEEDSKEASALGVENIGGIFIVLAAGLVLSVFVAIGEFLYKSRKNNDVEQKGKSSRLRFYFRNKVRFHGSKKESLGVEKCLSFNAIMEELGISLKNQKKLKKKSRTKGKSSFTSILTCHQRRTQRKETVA
# T1 sequence (P42264 32-919): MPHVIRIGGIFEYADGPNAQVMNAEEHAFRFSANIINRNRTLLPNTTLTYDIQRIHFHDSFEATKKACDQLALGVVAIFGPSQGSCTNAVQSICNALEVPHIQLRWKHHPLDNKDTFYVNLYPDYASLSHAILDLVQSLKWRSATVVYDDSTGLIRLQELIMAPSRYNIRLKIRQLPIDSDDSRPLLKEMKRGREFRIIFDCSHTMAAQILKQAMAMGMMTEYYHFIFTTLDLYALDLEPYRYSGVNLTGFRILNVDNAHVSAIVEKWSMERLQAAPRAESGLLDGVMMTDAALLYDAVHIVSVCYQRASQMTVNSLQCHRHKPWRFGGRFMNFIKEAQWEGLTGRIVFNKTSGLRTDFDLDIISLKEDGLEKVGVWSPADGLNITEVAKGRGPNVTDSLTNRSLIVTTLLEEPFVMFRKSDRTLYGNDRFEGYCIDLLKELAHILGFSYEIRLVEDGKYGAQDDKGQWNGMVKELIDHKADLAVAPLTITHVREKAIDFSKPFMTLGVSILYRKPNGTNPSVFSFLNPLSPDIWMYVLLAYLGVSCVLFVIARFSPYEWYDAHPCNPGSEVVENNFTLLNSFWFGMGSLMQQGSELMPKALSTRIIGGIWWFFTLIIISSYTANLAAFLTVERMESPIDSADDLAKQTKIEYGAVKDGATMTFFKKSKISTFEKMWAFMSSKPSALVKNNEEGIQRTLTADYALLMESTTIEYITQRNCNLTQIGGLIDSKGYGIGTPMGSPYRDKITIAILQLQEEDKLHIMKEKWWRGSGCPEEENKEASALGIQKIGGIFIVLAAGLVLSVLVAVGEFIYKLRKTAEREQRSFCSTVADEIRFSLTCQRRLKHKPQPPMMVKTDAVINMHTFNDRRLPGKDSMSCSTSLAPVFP
# T3 sequence (P42260 32-908): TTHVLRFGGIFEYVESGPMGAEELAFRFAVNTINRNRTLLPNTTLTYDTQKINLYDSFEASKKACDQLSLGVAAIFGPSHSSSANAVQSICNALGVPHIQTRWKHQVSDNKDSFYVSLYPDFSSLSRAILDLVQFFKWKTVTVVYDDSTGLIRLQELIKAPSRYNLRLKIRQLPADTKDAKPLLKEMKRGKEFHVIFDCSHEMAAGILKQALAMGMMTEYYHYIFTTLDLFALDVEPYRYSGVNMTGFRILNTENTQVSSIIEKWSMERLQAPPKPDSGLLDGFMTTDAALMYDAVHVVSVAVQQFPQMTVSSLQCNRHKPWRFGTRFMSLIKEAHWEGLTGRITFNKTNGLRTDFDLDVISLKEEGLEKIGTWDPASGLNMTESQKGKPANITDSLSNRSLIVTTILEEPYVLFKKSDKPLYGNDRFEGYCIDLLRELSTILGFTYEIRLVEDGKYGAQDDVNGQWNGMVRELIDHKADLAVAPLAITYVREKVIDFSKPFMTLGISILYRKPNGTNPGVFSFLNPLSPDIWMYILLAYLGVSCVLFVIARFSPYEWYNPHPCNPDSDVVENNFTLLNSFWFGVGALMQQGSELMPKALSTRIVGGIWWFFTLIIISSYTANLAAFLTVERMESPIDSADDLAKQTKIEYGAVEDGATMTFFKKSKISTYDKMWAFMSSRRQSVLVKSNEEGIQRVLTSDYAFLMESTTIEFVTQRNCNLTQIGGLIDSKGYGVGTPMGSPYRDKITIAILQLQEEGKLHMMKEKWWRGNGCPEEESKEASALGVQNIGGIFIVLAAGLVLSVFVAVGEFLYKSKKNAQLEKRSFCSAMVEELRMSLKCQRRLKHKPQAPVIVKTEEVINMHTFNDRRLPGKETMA
# T6 sequence (P42264 32-919): as the sequence (P42264 32-919) above
Structure (SMILES),Ki [2] [µM],Ki [3] [µM],Ki [4] [µM],Ki [5] [µM],Ki [6] [µM],melting point [°C],IC50 [7] [µM],"binding preference at GluK3 over the GluK1, GluK2 and GluK5 subtypes [1]"
N[C@@H](Cc1c[nH]c(S)n1)C(=O)O [(S)-2-mercaptohistidine],,,,,,,,15–100 fold
Cc1ccc(C#Cc2ccc3c(c2)[nH]c(=O)c(=O)n3NC(=O)c2ccccc2)cc1 [Compound 6],≥ 100,,6.1 ± 0.8,,,325 to 327,,
CCc1ccc(C#Cc2ccc3c(c2)[nH]c(=O)c(=O)n3NC(=O)c2ccccc2)cc1 [Compound 7],> 100,> 100,20 ± 1,> 100,> 100,308 to 310,,
CCCc1ccc(C#Cc2ccc3c(c2)[nH]c(=O)c(=O)n3NC(=O)c2ccccc2)cc1 [Compound 8],> 100,> 100,50 ± 12,> 100,> 100,305 to 306,,
O=C(Nn1c(=O)c(=O)[nH]c2cc(C#Cc3ccc(Cl)cc3)ccc21)c1ccccc1 [Compound 10],> 100,> 100,3.5 ± 0.7,> 100,> 100,326 to 327,,
O=C(Nn1c(=O)c(=O)[nH]c2cc(C#Cc3ccc(C(F)(F)F)cc3)ccc21)c1ccccc1 [Compound 11],~100,> 100,> 100,> 100,> 100,,,
COc1ccc(C#Cc2ccc3c(c2)[nH]c(=O)c(=O)n3NC(=O)c2ccccc2)cc1 [Compound 12],> 100,> 100,8.3 ± 0.4,> 100,> 100,304 to 305,,
O=C(O)c1cccc(C#Cc2ccc3c(c2)[nH]c(=O)c(=O)n3NC(=O)c2ccccc2)c1 [Compound 14],> 100,> 100,28 ± 2,> 100,> 100,310 to 312,,
O=C(O)c1ccc(C#Cc2ccc3c(c2)[nH]c(=O)c(=O)n3NC(=O)c2ccccc2)cc1 [Compound 15],> 100,> 100,31 ± 4,> 100,> 100,348 to 349,,
NS(=O)(=O)c1ccc(C#Cc2ccc3c(c2)[nH]c(=O)c(=O)n3NC(=O)c2ccccc2)cc1 [Compound 16],> 100,> 100,~100,> 100,> 100,303 to 305,,
O=C(Nn1c(=O)c(=O)[nH]c2cc(-c3cc4ccccc4o3)ccc21)c1ccccc1 [Compound 18],> 100,,14 ± 2,,,,,
O=C(Nn1c(=O)c(=O)[nH]c2cc(C#Cc3cccc(O)c3)ccc21)c1ccccc1 [Compound 19],> 100,> 100,3.2 ± 0.6,> 100,~100,313 to 314,,
O=C(Nn1c(=O)c(=O)[nH]c2cc(C#Cc3ccc(CO)cc3)ccc21)c1ccccc1 [Compound 20],~100,> 100,5.8 ± 1.5,> 100,> 100,298 to 300,,
Nc1ccc(C#Cc2ccc3c(c2)[nH]c(=O)c(=O)n3NC(=O)c2ccccc2)cc1 [Compound 23],> 100,> 100,1.4 ± 0.2,> 100,> 100,312 to 314,,
O=C(Nn1c(=O)c(=O)[nH]c2cc(C#Cc3ccc4[nH]ncc4n3)ccc21)c1ccccc1 [Compound 29],0.15 ± 0.05,0.091 ± 0.015,0.13 ± 0.03,3.8 ± 0.1,0.23 ± 0.02,,2.2,
"NS(=O)(=O)c1cccc2c1c([N+](=O)[O-])cc1nc(O)c(O)nc12 [NBQX, reference compound]",,5.4 ± 1.2,,152 ± 23,,,,

# Continued, in another order:
Ki [2] [µM],Ki [3] [µM],Ki [4] [µM],Ki [5] [µM],Ki [6] [µM],melting point [°C],IC50 [7] [µM],Structure (SMILES),"binding preference at GluK3 over the GluK1, GluK2 and GluK5 subtypes [1]"
~100,~100,1.4 ± 0.4,> 100,> 100,318 to 320,,Cc1cccc(C#Cc2ccc3c(c2)[nH]c(=O)c(=O)n3NC(=O)c2ccccc2)c1 [Compound 5],
> 100,> 100,38 ± 10,> 100,> 100,263 to 264,,CC(C)c1ccc(C#Cc2ccc3c(c2)[nH]c(=O)c(=O)n3NC(=O)c2ccccc2)cc1 [Compound 9],
≥ 100,,7.9 ± 0.7,,,262 to 263,,O=C(Nn1c(=O)c(=O)[nH]c2cc(C#Cc3ccc(Oc4ccccc4)cc3)ccc21)c1ccccc1 [Compound 13],
14 ± 2,,1 ± 0.1,,,303 to 305,,Nc1ccccc1C#Cc1ccc2c(c1)[nH]c(=O)c(=O)n2NC(=O)c1ccccc1 [Compound 21],
> 100,,~100,,,274 to 275,,Nc1cccc(C#Cc2ccc3c(c2)[nH]c(=O)c(=O)n3NC(=O)c2ccccc2)c1 [Compound 22],
39 ± 4,,24 ± 4,,,273 to 275,,CN(C)c1ccc(C#Cc2ccc3c(c2)[nH]c(=O)c(=O)n3NC(=O)c2ccccc2)cc1 [Compound 24],
> 100,> 100,25 ± 6,> 100,> 100,239 to 241,,O=C(Nn1c(=O)c(=O)[nH]c2cc(C#Cc3ccncc3)ccc21)c1ccccc1 [Compound 25],
11 ± 2,12 ± 2,0.28 ± 0.02,> 100,> 100,318 to 320,0.6,O=C(Nn1c(=O)c(=O)[nH]c2cc(C#Cc3cncnc3)ccc21)c1ccccc1 [Compound 27],

# From publication PMC9369419 (International Journal of Molecular Sciences, 2022)
